13 molecules from ChEMBL document CHEMBL1201862, “PubChem BioAssay data set” (2004) can be followed below.

Common to all, as to test: NCI-60 cell line screen, 48 h
In assay [1] the test system is 786-0.
The subject of assay [2] is A549.
The test system of assay [3] is CCRF-CEM.
In assay [4] the test system is COLO 205.
In assay [5] the test system is EKVX.
The test system of assay [6] is HOP-92.
Assay [7] concerns LOX IMVI.
Assay [8] relates to MOLT-4.
For assay [9], the system named is NCI-H226.
The test system of assay [10] is NCI-H23.
For assay [11], the system named is NCI-H460.
Assay [12] concerns OVCAR-4.
The subject of assay [13] is OVCAR-8.
Assay [14] deals with SF-539.
In assay [15] the test system is UO-31.
Assay [16] relates to KM12.
Assay [17] has as its system NCI-H522.

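Step 1: Grow cells in 96-well plates. Step 2: Expose to compound for 48 hours at 5 concentrations. Step 3: Interpolate endpoints linearly; if unreached, use highest concentration. GI50 marks 50% less growth.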 Calls of active or inactive are those of the source. Cut-off read from the data, not from the text of the source: active = GI50 up to about 1.1 µM and inactive = higher.

As to `COC(=O)N1C=Cc2c(c(C)c3c([nH]c4ccccc43)c2C)C1C` (stereo not drawn), the GI50 in [1] is 13.2 µM (inactive); in assay [2], 18 µM (inactive); in assay [3], 14.8 µM (inactive); in assay [4], 18.7 µM (inactive); in assay [5], 14 µM (inactive); in assay [6] it was 20.1 µM (inactive). In addition, the GI50 in [7] is 16.4 µM (inactive); in assay [8] it was 5.97 µM (inactive); in assay [9], 17.6 µM (inactive); in assay [10], 17.7 µM (inactive); in assay [11], 22.5 µM (inactive); in assay [12] it was 12.3 µM (inactive). Further, the results for the GI50 in [13], in assay [14] and in assay [15] were 18.3 µM (inactive), 17.1 µM (inactive) and 18.5 µM (inactive), respectively.
As for `CC(=O)Oc1ccc(Nn2c3ccccc3c3ccccc32)c(C)c1`, the GI50 in assay [1] was 20.6 µM (inactive); in assay [2], 56.8 µM (inactive); in assay [3] it was 29.8 µM (inactive); in assay [4] it was 31.7 µM (inactive); in assay [6], 24.5 µM (inactive); in [16], 36.6 µM (inactive). Further, the GI50 was > 10 µM (inactive) in assay [7]; 23.4 µM (inactive) in assay [8]; 38.2 µM (inactive) in assay [10]; 27.7 µM (inactive) in assay [11]; 19.3 µM (inactive) in assay [17]; 24.3 µM (inactive) in assay [13]. Moreover, the GI50 in assay [14] is > 10 µM (inactive); in assay [15], 39.1 µM (inactive).
On to `CC(C)CC(N/C=C1/N=C(c2ccccc2)OC1=O)C(=O)O` (stereo not drawn), for which the GI50 in assay [1], in assay [2], in assay [3], in assay [4], in assay [5] and in [16] was > 100 µM (inactive) each time. Moreover, the GI50 in assay [7], in assay [8], in [9], in assay [10], in assay [11] and in assay [17] was > 100 µM (inactive) throughout. Further, the GI50 in assay [12], in assay [13], in assay [14] and in [15] was > 100 µM (inactive) throughout.
Consider `CC(=O)C1C(=O)C(=O)N(c2ccc(Cl)cc2C)C1=O` (stereo not drawn), for which the GI50 in [1], in [2], in [3], in assay [4], in [5] and in assay [6] was > 100 µM (inactive) in each case. Moreover, the GI50 in [16], in assay [8], in assay [10], in [11], in [17] and in assay [12] was > 100 µM (inactive) in each case. Further, the GI50 in assay [13], in assay [14] and in assay [15] was > 100 µM (inactive) throughout.
`O=C1NC2CCCCCC2C12CCCCC2` (stereo not drawn): the GI50 in [2], in assay [3], in assay [5], in [16], in assay [7] and in assay [8] was > 100 µM (inactive) throughout. In addition, the GI50 in assay [9], in assay [10], in assay [11], in [12], in assay [14] and in assay [15] was > 100 µM (inactive) each time.
As to `Cn1c2ccccc2c2ccc3c(c21)C(=O)C(c1ccccc1)=CC3=O`, the GI50 was 17.1 µM (inactive) in assay [1]; 34.4 µM (inactive) in [2]; 9.62 µM (inactive) in assay [3]; 31.1 µM (inactive) in assay [4]; 23.2 µM (inactive) in assay [5]; 15.7 µM (inactive) in assay [6]. Also, the GI50 in assay [16] was 32.2 µM (inactive); in [8], 14.8 µM (inactive); in [9], 11.7 µM (inactive); in assay [10], 22.4 µM (inactive); in [11] it was 9.27 µM (inactive); in assay [17], 19.2 µM (inactive). Also, the GI50 in assay [13] is 14.9 µM (inactive); in [14] it was 24.2 µM (inactive); in assay [15] it was 31.1 µM (inactive).
As to `COc1ccc2c(c1)[n+]([O-])c(-c1cccc(Cl)c1)c(N)[n+]2[O-]`, the GI50 was 95.1 µM (inactive) in [1]; 32.7 µM (inactive) in assay [2]; 22.9 µM (inactive) in assay [3]; 16.6 µM (inactive) in assay [4]; > 100 µM (inactive) in assay [5]; > 100 µM (inactive) in assay [6]. The GI50 in assay [16] is 48.6 µM (inactive); in [8] it was 46 µM (inactive); in [9], > 100 µM (inactive); in [10], 23.9 µM (inactive); in assay [11], 27.4 µM (inactive); in [17] it was 16.5 µM (inactive). The GI50 in assay [12] was 34.6 µM (inactive); in assay [13] it was 40.3 µM (inactive); in assay [14], 31.3 µM (inactive); in assay [15], 89.3 µM (inactive).
Take `CN(C)CCNC(=O)c1cccc2cc3cc(O)ccc3nc12`: the GI50 in assay [2] is 0.811 µM (active); in assay [3], 0.59 µM (active); in assay [4] it was 0.897 µM (active); in assay [5], 1.95 µM (inactive); in assay [6], 0.792 µM (active); in [16], 2.12 µM (inactive). For the same molecule, the GI50 is 0.857 µM (active) in assay [7]; 0.147 µM (active) in assay [8]; 0.621 µM (active) in assay [9]; 1.24 µM (inactive) in assay [10]; 0.361 µM (active) in assay [11]; 2 µM (inactive) in assay [12]. Further, the GI50 in [13] was 0.796 µM (active); in [14], 1.11 µM (active); in [15], 1.12 µM (active).
For the molecule `COc1cc(C2C(C(=O)Nc3ccccc3C)=C(C)NC(C)=C2C(=O)Nc2ccccc2C)ccc1O`, the GI50 in [1] was > 100 µM (inactive); in assay [2], > 100 µM (inactive); in assay [3] it was 71.8 µM (inactive); in assay [4], > 100 µM (inactive); in assay [5], > 100 µM (inactive); in assay [6], > 100 µM (inactive). The GI50 was > 100 µM (inactive) in [16]; 60.7 µM (inactive) in assay [8]; > 100 µM (inactive) in assay [9]; > 100 µM (inactive) in [10]; > 100 µM (inactive) in [11]; > 100 µM (inactive) in [17]. For the same molecule, the GI50 in [12], in [13], in [14] and in assay [15] was > 100 µM (inactive) throughout.
For the molecule `Cc1ccc(S(=O)(=O)N/N=C(/c2nc3ccc([N+](=O)[O-])cc3nc2O)C(O)c2ccc(C(O)/C(=N\NS(=O)(=O)c3ccc(C)cc3)c3nc4ccc([N+](=O)[O-])cc4nc3O)cc2)cc1` (stereo not drawn), the GI50 in assay [1] is > 100 µM (inactive); in assay [2] it was 49.1 µM (inactive); in assay [3] it was 13.6 µM (inactive); in assay [4], 41.4 µM (inactive); in assay [5], 81.7 µM (inactive); in [6], 2.55 µM (inactive). Further, the GI50 in [16] is 19.3 µM (inactive); in [7], 20.3 µM (inactive); in [8] it was 28.2 µM (inactive); in assay [10] it was > 100 µM (inactive); in [11] it was 35.6 µM (inactive); in assay [17], 3.15 µM (inactive). Further, the GI50 is 92.3 µM (inactive) in assay [13], 42.9 µM (inactive) in assay [14] and 38.4 µM (inactive) in assay [15].
As for `COc1ccc(Br)c(CN2CCc3ccccc32)c1OS(=O)(=O)c1ccc(C)cc1`, the GI50 is 23.7 µM (inactive) in assay [1]; 8.17 µM (inactive) in assay [2]; 21.4 µM (inactive) in assay [3]; 11.9 µM (inactive) in assay [4]; 58.7 µM (inactive) in [5]; 18 µM (inactive) in [6]. The GI50 in [16] was 7.66 µM (inactive); in assay [8], 29.3 µM (inactive); in assay [9], > 100 µM (inactive); in assay [10], 23.9 µM (inactive); in assay [17] it was 4.39 µM (inactive); in assay [13], 47.5 µM (inactive). The GI50 in assay [14] was 15.6 µM (inactive); in assay [15], 51.2 µM (inactive).
Consider `COC(C(O)c1ccc2c(c1)OCO2)P(=O)(c1ccccc1)c1ccccc1` (stereo not drawn), for which the GI50 in [1] was > 100 µM (inactive); in assay [3], > 100 µM (inactive); in [5], > 100 µM (inactive); in assay [6], 68.2 µM (inactive); in assay [16], > 100 µM (inactive); in assay [8], > 100 µM (inactive). Also, the GI50 in assay [9] was 73.1 µM (inactive); in assay [10], 30.8 µM (inactive); in [11], > 100 µM (inactive); in assay [17], 85.3 µM (inactive); in assay [12], 11.1 µM (inactive); in [13], 62.1 µM (inactive). The GI50 in assay [14] and in assay [15] was > 100 µM (inactive) in each case.
Consider `COC(=O)C1=C(O)c2cc3c(cc2[C@H](c2cc(OC)c(OC)c(OC)c2)C1C(=O)OC)OCO3` (stereo partly drawn), for which the GI50 in assay [1] is 42.7 µM (inactive); in [2], > 100 µM (inactive); in [3], > 100 µM (inactive); in assay [4], 19.7 µM (inactive); in assay [5] it was 68.2 µM (inactive); in assay [6] it was 33.7 µM (inactive). Further, the GI50 in [16] is 35.2 µM (inactive); in [7] it was > 100 µM (inactive); in assay [8] it was 58.9 µM (inactive); in assay [9] it was 33 µM (inactive); in assay [10], > 100 µM (inactive); in assay [11], 61 µM (inactive). Moreover, the GI50 is 30.2 µM (inactive) in assay [12], 39.5 µM (inactive) in [13], 20.7 µM (inactive) in assay [14] and 42.3 µM (inactive) in assay [15].
